Values quoted from earlier work in patent US20160017431A1, “Methods for Predicting EGFR Tyrosine Kinase Inhibitor Efficacy” (Driver Group, priority 2014, published 2016).

Test system: EGFR mutants carrying the T790M mutation
Conditions: statement 'has been shown', no data given

Row | SMILES | inhibition of the tyrosine kinase activity of EGFR mutants carrying the T790M mutation
1 | COc1cc(N2CCC(N(C)C)CC2)ccc1Nc1ncc(Cl)c(Nc2ccccc2P(C)(C)=O)n1 [AP26113] | able to inhibit the tyrosine kinase activity
2 | COc1cc2ncnc(Nc3ccc(F)c(Cl)c3)c2cc1NC(=O)/C=C/CN1CCCCC1 [Dacomitinib] | able to inhibit the tyrosine kinase activity
